The values that follow are results of earlier work, collected in patent US20240254438A1, “MULTI-REGIONAL HUMAN NEURAL CIRCUITS IN ASSEMBLOIDS DERIVED FROM PLURIPOTENT STEM CELLS” (The Board of Trustees of the Leland Stanford Junior …, priority 2021, published 2024).

The target of one data set is Smo heptahelical domain (Homo sapiens, UniProt Q99835).
Data set [1] relates to PORCN. Particulars: HEK293 cells, Wnt3A-mediated TCF luciferase.
For data set [2], the system named is PORCN.
In another data set the test system is Wnt signaling. Particulars: TM3 cells.
Data set [3] addresses element-binding protein (CBP) (Homo sapiens, UniProt Q92793). To be noted: binds to element-binding protein (CBP).
The next data set concerns the target T1, TNKS2 (Homo sapiens, UniProt Q9H2K2).
T1 sequence (Q9H2K2 1-1166): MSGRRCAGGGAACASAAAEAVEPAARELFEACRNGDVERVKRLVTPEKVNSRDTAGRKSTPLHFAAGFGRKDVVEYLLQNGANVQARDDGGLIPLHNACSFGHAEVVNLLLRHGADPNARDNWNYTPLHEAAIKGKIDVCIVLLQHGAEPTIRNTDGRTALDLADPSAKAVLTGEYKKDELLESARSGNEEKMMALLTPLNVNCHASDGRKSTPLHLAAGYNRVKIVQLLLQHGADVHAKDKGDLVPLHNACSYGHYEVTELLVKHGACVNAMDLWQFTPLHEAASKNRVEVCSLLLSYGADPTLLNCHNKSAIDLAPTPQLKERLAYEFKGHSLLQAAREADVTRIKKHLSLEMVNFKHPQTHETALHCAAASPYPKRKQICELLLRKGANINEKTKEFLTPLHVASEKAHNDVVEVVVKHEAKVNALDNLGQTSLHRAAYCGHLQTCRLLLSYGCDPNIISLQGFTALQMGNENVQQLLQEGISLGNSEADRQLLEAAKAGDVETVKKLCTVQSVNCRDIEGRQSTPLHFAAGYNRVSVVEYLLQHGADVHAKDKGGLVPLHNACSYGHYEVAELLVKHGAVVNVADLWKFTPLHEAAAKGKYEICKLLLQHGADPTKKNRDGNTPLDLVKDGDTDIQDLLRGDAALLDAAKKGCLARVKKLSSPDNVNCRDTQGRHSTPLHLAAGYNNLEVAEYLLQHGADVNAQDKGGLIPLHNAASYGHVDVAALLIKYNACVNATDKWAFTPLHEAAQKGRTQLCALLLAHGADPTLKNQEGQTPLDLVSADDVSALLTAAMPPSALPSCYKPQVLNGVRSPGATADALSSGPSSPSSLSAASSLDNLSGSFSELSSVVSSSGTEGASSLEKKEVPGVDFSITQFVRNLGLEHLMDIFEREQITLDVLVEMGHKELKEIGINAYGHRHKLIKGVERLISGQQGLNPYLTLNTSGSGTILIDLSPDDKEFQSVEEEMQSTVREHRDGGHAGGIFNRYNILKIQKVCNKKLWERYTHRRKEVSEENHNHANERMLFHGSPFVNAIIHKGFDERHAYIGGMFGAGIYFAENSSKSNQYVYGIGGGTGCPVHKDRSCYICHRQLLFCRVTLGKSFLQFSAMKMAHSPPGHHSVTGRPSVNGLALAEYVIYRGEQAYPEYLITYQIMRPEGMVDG

The subject of data set [4] is Wnt processing and secretion. Particulars: cell-free assay.

SMILES strings stand for the structures.

Chain of Smo heptahelical domain (Q99835 28-787): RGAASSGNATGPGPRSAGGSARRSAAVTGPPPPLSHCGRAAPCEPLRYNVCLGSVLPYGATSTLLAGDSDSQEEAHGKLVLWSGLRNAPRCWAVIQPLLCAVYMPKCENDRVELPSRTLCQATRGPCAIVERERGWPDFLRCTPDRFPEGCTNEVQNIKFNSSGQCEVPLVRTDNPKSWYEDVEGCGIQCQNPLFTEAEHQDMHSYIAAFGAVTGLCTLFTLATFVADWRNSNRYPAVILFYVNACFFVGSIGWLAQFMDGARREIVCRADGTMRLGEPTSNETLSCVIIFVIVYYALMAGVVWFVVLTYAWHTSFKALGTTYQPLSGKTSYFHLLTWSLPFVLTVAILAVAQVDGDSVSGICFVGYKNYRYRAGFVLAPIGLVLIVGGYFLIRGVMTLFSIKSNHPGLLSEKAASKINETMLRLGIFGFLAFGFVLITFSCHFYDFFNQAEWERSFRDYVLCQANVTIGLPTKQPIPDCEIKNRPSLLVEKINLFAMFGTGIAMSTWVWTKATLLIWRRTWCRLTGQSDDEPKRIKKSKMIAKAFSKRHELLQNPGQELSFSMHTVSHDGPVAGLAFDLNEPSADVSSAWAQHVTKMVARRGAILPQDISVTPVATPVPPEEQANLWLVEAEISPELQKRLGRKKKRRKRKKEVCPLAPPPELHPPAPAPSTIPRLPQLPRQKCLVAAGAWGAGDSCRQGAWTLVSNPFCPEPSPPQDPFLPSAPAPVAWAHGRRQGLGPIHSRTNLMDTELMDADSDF
Chain of element-binding protein (CBP) (Q92793 whole entry): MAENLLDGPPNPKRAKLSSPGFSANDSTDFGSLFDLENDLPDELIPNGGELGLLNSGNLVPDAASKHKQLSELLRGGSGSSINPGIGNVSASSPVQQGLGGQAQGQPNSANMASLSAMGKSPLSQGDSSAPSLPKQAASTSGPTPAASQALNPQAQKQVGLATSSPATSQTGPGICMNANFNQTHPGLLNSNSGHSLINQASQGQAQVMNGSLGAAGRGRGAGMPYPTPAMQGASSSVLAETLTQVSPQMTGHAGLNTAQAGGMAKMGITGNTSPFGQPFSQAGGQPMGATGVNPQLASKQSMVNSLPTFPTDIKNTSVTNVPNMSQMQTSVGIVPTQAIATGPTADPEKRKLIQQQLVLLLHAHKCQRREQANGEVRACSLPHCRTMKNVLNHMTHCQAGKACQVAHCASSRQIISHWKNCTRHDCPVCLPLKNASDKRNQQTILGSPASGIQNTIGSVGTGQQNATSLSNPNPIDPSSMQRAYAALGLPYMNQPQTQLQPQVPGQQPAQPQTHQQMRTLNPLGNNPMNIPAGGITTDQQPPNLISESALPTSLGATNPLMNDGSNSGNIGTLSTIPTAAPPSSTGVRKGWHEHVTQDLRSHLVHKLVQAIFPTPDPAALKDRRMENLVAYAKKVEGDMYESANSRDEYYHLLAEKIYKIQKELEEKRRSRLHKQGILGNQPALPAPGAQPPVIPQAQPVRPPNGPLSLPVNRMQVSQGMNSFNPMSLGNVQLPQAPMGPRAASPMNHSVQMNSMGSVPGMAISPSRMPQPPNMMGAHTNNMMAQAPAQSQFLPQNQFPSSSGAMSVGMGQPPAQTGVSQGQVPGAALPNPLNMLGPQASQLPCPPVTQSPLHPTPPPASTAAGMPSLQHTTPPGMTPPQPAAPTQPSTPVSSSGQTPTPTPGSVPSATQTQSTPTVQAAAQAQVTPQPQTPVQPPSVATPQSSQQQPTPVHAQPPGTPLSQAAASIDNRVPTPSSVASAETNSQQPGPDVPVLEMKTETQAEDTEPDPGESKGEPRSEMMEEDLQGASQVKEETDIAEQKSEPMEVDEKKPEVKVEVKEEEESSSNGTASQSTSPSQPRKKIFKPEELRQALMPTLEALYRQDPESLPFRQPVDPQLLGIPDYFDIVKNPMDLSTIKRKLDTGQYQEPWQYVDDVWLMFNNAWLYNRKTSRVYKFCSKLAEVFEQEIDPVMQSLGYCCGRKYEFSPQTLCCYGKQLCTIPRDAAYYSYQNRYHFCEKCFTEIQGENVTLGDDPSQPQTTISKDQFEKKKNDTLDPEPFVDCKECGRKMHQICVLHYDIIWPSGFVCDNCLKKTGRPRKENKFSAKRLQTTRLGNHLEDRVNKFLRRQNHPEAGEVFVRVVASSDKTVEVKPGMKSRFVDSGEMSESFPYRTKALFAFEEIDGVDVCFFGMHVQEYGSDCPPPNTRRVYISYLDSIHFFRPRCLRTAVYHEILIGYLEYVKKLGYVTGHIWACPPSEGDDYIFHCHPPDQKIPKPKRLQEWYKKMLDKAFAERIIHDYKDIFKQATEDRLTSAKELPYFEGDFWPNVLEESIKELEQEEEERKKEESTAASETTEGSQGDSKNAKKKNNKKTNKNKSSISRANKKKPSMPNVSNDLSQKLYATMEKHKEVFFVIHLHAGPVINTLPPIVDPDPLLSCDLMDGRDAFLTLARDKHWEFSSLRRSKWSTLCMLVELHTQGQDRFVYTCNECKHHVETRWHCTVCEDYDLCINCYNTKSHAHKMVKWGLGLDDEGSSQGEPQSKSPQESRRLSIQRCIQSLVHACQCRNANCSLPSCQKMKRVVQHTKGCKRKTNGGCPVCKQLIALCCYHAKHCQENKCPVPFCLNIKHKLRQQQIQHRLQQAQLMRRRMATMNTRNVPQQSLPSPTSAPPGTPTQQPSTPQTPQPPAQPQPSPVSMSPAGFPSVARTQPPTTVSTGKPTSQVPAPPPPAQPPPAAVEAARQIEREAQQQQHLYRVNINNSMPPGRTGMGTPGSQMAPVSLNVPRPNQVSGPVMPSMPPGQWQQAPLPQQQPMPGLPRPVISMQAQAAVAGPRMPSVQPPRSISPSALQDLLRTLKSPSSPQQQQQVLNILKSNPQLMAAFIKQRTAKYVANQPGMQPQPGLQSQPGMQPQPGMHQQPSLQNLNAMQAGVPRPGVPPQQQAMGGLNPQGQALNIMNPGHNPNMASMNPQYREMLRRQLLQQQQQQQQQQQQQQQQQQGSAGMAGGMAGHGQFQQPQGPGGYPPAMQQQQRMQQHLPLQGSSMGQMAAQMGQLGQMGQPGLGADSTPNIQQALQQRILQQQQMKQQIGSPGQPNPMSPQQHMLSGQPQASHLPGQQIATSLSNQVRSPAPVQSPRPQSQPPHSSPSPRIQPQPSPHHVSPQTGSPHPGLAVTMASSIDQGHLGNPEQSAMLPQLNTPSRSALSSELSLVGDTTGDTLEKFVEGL

Turning to `CNC1CCC(N(Cc2cccc(-c3ccncc3)c2)C(=O)c2sc3ccccc3c2Cl)CC1` (stereo not shown) [SAG], the dissociation constant (Kd) at Smo heptahelical domain is 59 nM.

With `Cc1cc(-c2ccc(CC(=O)Nc3ccc(-c4cccnc4)cc3)cc2)ccn1` [Wnt-C59], the IC50 with PORCN [1] was 0.074 nM.

With `O=C(CSc1nc2c(c(=O)n1-c1ccccc1)SCC2)Nc1ccc(-c2ccccc2)cn1` [IWP-L6], the EC50 with PORCN [2] is 0.5 nM.

`Cc1cc(-c2ncc(CC(=O)Nc3ccc(-c4cnccn4)cn3)cc2C)ccn1` [LGK-974]: the IC50 in the data set with Wnt signaling is 0.4 nM.

Consider `O=C1[C@H](Cc2ccc(O)cc2)N2C(=O)CCN(C(=O)NCc3ccccc3)[C@H]2CN1Cc1cccc2ccccc12` [ICG-001], for which the half-maximal inhibitory concentration (IC50) in data set [3] was 3000 nM.

For the compound `COc1ccc(-n2c(SCCCN3C(=O)c4cccc5cccc(c45)C3=O)nnc2-c2ccncc2)cc1` [WIKI4], the IC50 at TNKS2 was 15 nM.

Consider `Cc1ccc2nc(NC(=O)CSc3nc4c(c(=O)n3-c3ccccc3)SCC4)sc2c1` [IWP-2], for which the IC50 in data set [4] was 27 nM.
